In US20220233549A1, “METHOD FOR ALPHAVIRUS INHIBITION” (priority 2019, published 2022) one finds EC50 data, which are given here for 40 compounds.

As a reminder, the EC50 is the concentration giving half of the maximal effect. Read a low EC50 as greater potency.

The assay has as its system CHIKV 181/clone25. Kind of assay: CHIKV cytopathic effect (CPE) protection assay in Vero cells. As to conditions: Chikungunya virus; CHIKV 181/clone25, Vero cells, MOI=0.01, 48 hrs, protection from CPE (crystal violet, absorbance 595nm). It counts as cell-based. On the technique in general: Damage to the host cells serves as the signal in cytopathic effect assays.
In the case of `O=C(CC1Sc2ncccc2NC1=O)NCC1CCCCC1` (stereo not shown) [Example 2, N-(cyclohexylmethyl)-2-(2-oxo-2,3-dihydro-1H-pyrido[2,3-b][1,4]thiazin-3-yl)acetamide], the EC50 was < 10 µM.

Turning to `COC(=O)CC1Sc2ncccc2NC1=O` (stereo not shown) [Example 3, methyl 2-(2-oxo-2,3-dihydro-1H-pyrido[2,3-b][1,4]thiazin-3-yl)acetate], the EC50 is > 100 µM.

For the compound `O=C(CC1Sc2ncccc2NC1=O)NCC1CCC(O)CC1` (stereo not shown) [Example 4, N-((4-hydroxycyclohexyl)methyl)-2-(2-oxo-2,3-dihydro-1H-pyrido[2,3-b][1,4]thiazin-3-yl)acetamide], the EC50 was > 100 µM.

For `O=C(O)CC1Sc2ncccc2NC1=O` (stereo not shown) [Example 5, 2-(2-oxo-2,3-dihydro-1H-pyrido[2,3-b][1,4]thiazin-3-yl)acetic acid], the EC50 is > 100 µM.

As to `CN1C(=O)[C@@H](CC(=O)NCC2CCCCC2)Sc2ncccc21` [Example 6, (R)-N-(cyclohexylmethyl)-2-(1-methyl-2-oxo-2,3-dihydro-1H-pyrido[2,3-b][1,4]thiazin-3-yl)acetamide], the concentration giving a half-maximal response (EC50) is < 10 µM.

`CN1C(=O)[C@H](CC(=O)NCC2CCCCC2)Sc2ncccc21` [Example 7, (S)-N-(cyclohexylmethyl)-2-(1-methyl-2-oxo-2,3-dihydro-1H-pyrido[2,3-b][1,4]thiazin-3-yl)acetamide] came in with an EC50 of 10 to 49.9 µM.

In the case of `CN1CCN(C(=O)CC2Sc3ncccc3N(C)C2=O)CC1` (stereo not shown) [Example 8, 1-methyl-3-(2-(4-methylpiperazin-1-yl)-2-oxoethyl)-1H-pyrido[2,3-b][1,4]thiazin-2(3H)-one], the EC50 was > 100 µM.

For the compound `CN1C(=O)C(CC(=O)NCC2CCCO2)Sc2ncccc21` (stereo not shown) [Example 9, 2-(1-methyl-2-oxo-2,3-dihydro-1H-pyrido[2,3-b][1,4]thiazin-3-yl)-N-((tetrahydrofuran-2-yl)methyl)acetamide], the EC50 was > 100 µM.

Consider `CC(C)NC(=O)CC1Sc2ncccc2N(C)C1=O` (stereo not shown) [Example 10, N-isopropyl-2-(1-methyl-2-oxo-2,3-dihydro-1H-pyrido[2,3-b][1,4]thiazin-3-yl)acetamide], for which the EC50 was > 100 µM.

`CCN1CCN(C(=O)CC2Sc3ncccc3N(C)C2=O)CC1` (stereo not shown) [Example 11, 3-(2-(4-ethylpiperazin-1-yl)-2-oxoethyl)-1-methyl-1H-pyrido[2,3-b][1,4]thiazin-2(3H)-one]: the EC50 is > 100 µM.

For `CN1C(=O)C(CC(=O)NCc2ccccn2)Sc2ncccc21` (stereo not shown) [Example 12, 2-(1-methyl-2-oxo-2,3-dihydro-1H-pyrido[2,3-b][1,4]thiazin-3-yl)-N-(pyridin-2-ylmethyl)acetamide], the EC50 is > 100 µM.

As for `CN1C(=O)C(CC(=O)NCc2cccnc2)Sc2ncccc21` (stereo not shown) [Example 13, 2-(1-methyl-2-oxo-2,3-dihydro-1H-pyrido[2,3-b][1,4]thiazin-3-yl)-N-(pyridin-3-ylmethyl)acetamide], the EC50 is > 100 µM.

For `CN1C(=O)C(CC(=O)NCc2ccncc2)Sc2ncccc21` (stereo not shown) [Example 14, 2-(1-methyl-2-oxo-2,3-dihydro-1H-pyrido[2,3-b][1,4]thiazin-3-yl)-N-(pyridin-4-ylmethyl)acetamide], the EC50 is > 100 µM.

As to `CN1C(=O)C(CC(=O)NCc2ccccc2)Sc2ncccc21` (stereo not shown) [Example 15, N-benzyl-2-(1-methyl-2-oxo-2,3-dihydro-1H-pyrido[2,3-b][1,4]thiazin-3-yl)acetamide], the EC50 fell in the range of 10 to 49.9 µM.

In the case of `CCC(C)NC(=O)CC1Sc2ncccc2N(C)C1=O` (stereo not shown) [Example 16, N-(sec-butyl)-2-(1-methyl-2-oxo-2,3-dihydro-1H-pyrido[2,3-b][1,4]thiazin-3-y)acetamide], the EC50 is > 100 µM.

As for `CC(NC(=O)CC1Sc2ncccc2N(C)C1=O)c1ccccc1` (stereo not shown) [Example 17, 2-(1-methyl-2-oxo-2,3-dihydro-1H-pyrido[2,3-b][1,4]thiazin-3-yl)-N-(1-phenylethyl)acetamide], the EC50 was > 100 µM.

Turning to `COCCNC(=O)CC1Sc2ncccc2N(C)C1=O` (stereo not shown) [Example 18, N-(2-methoxyethyl)-2-(1-methyl-2-oxo-2,3-dihydro-1H-pyrido[2,3-b][1,4]thiazin-3-yl)acetamide], the EC50 is > 100 µM.

Take `CN1C(=O)C(CC(=O)NC2CCCCC2)Sc2ncccc21` (stereo not shown) [Example 19, N-cyclohexyl-2-(1-methyl-2-oxo-2,3-dihydro-1H-pyrido[2,3-b][1,4]thiazin-3-yl)acetamide]: the EC50 is > 100 µM.

In the case of `CN1C(=O)C(CC(=O)NC2=CCCCC2)Sc2ncccc21` (stereo not shown) [Example 20, N-(cyclohex-1-en-1-yl)-2-(1-methyl-2-oxo-2,3-dihydro-1H-pyrido[2,3-b][1,4]thiazin-3-yl)acetamide], the EC50 was 10 to 49.9 µM.

Take `COCCCNC(=O)CC1Sc2ncccc2N(C)C1=O` (stereo not shown) [Example 21, N-(3-methoxypropyl)-2-(1-methyl-2-oxo-2,3-dihydro-1H-pyrido[2,3-b][1,4]thiazin-3-yl)acetamide]: the half-maximal effective concentration (EC50) is > 100 µM.

On to `CN1C(=O)C(CC(=O)NC2CCCC2)Sc2ncccc21` (stereo not shown) [Example 22, N-cyclopentyl-2-(1-methyl-2-oxo-2,3-dihydro-1H-pyrido[2,3-b][1,4]thiazin-3-yl)acetamide], for which the EC50 was in the range of 50 to 99.9 µM.

Turning to `CN1C(=O)C(CC(=O)NC2CCCCCC2)Sc2ncccc21` (stereo not shown) [Example 23, N-cycloheptyl-2-(1-methyl-2-oxo-2,3-dihydro-1H-pyrido[2,3-b][1,4]thiazin-3-yl)acetamide], the concentration for a half-maximal effect (EC50) is 10 to 49.9 µM.

`CN1C(=O)C(CC(=O)NCc2ccc(F)cc2)Sc2ncccc21` (stereo not shown) [Example 24, N-(4-fluorobenzyl)-2-(1-methyl-2-oxo-2,3-dihydro-1H-pyrido[2,3-b][1,4]thiazin-3-yl)acetamide]: the EC50 is < 10 µM.

In the case of `CN1C(=O)C(CC(=O)NCc2ccccc2C(F)(F)F)Sc2ncccc21` (stereo not shown) [Example 25, 2-(1-methyl-2-oxo-2,3-dihydro-1H-pyrido[2,3-b][1,4]thiazin-3-yl)-N-(2-(trifluoromethyl)benzyl)aceta-mide], the EC50 is > 100 µM.

In turn, `Cc1ccc(CNC(=O)CC2Sc3ncccc3N(C)C2=O)cc1` (stereo not shown) [Example 26, 2-(1-methyl-2-oxo-2,3-dihydro-1H-pyrido[2,3-b][1,4]thiazin-3-yl)-N-(4-methylbenzyl)acetamide] returned an EC50 of 10 to 49.9 µM.

Take `CN(Cc1ccccc1)C(=O)CC1Sc2ncccc2N(C)C1=O` (stereo not shown) [Example 27, N-benzyl-N-methyl-2-(1-methyl-2-oxo-2,3-dihydro-1H-pyrido[2,3-b][1,4]thiazin-3-yl)acetamide]: the EC50 is > 100 µM.

On to `CN(C)CCCNC(=O)CC1Sc2ncccc2N(C)C1=O` (stereo not shown) [Example 28, N-(3-(dimethylamino)propyl)-2-(1-methyl-2-oxo-2,3-dihydro-1H-pyrido[2,3-b][1,4]thiazin-3-yl)acetamide], for which the EC50 is > 100 µM.

In the case of `CC(C)CCNC(=O)CC1Sc2ncccc2N(C)C1=O` (stereo not shown) [Example 29, N-isopentyl-2-(1-methyl-2-oxo-2,3-dihydro-1H-pyrido[2,3-b][1,4]thiazin-3-yl)acetamide], the EC50 was < 10 µM.

As for `CN1C(=O)C(CC(=O)NCc2ccco2)Sc2ncccc21` (stereo not shown) [Example 30, N-(furan-2-ylmethyl)-2-(1-methyl-2-oxo-2,3-dihydro-1H-pyrido[2,3-b][1,4]thiazin-3-yl)acetamide], the EC50 was > 100 µM.

As for `CN1C(=O)C(CC(=O)N2CCCCCC2)Sc2ncccc21` (stereo not shown) [Example 31, 3-(2-(azepan-1-yl)-2-oxoethyl)-1-methyl-1H-pyrido[2,3-b][1,4]thiazin-2(3H)-one], the EC50 is > 100 µM.

In the case of `CC(C)N1CCN(C(=O)CC2Sc3ncccc3N(C)C2=O)CC1` (stereo not shown) [Example 32, 3-(2-(4-isopropylpiperazin-1-yl)-2-oxoethyl)-1-methyl-1H-pyrido[2,3-b][1,4]thiazin-2(3H)-one], the EC50 was > 100 µM.

`Cc1ccc(CNC(=O)CC2Sc3ncccc3N(C)C2=O)o1` (stereo not shown) [Example 33, 2-(1-methyl-2-oxo-2,3-dihydro-1H-pyrido[2,3-b][1,4]thiazin-3-yl)-N-((5-methylfuran-2-yl)methyl)acetamide]: the EC50 was > 100 µM.

Take `CCCN1CCN(C(=O)CC2Sc3ncccc3N(C)C2=O)CC1` (stereo not shown) [Example 34, 1-methyl-3-(2-oxo-2-(4-propylpiperazin-1-yl)ethyl)-1H-pyrido[2,3-b][1,4]thiazin-2(3H)-one]: the EC50 is > 100 µM.

In the case of `CC1CCCN(C(=O)CC2Sc3ncccc3N(C)C2=O)C1` (stereo not shown) [Example 35, 1-methyl-3-(2-(3-methylpiperidin-1-yl)-2-oxoethyl)-1H-pyrido[2,3-b][1,4]thiazin-2(3H)-one], the EC50 was > 100 µM.

On to `CC1CCN(C(=O)CC2Sc3ncccc3N(C)C2=O)CC1` (stereo not shown) [Example 36, 1-methyl-3-(2-(4-methylpiperidin-1-yl)-2-oxoethyl)-1H-pyrido[2,3-b][1,4]thiazin-2(3H)-one], for which the EC50 was > 100 µM.

Take `CN1C(=O)C(CC(=O)N2CCCC2)Sc2ncccc21` (stereo not shown) [Example 37, 1-methyl-3-(2-oxo-2-(pyrrolidin-1-yl)ethyl)-1H-pyrido[2,3-b][1,4]thiazin-2(3H)-one]: the EC50 is > 100 µM.

In the case of `CN1C(=O)C(CC(=O)N2CCCCC2)Sc2ncccc21` (stereo not shown) [Example 38, 1-methyl-3-(2-oxo-2-(piperidin-1-yl)ethyl)-1H-pyrido[2,3-b][1,4]thiazin-2(3H)-one], the EC50 was > 100 µM.

For `CC(NC(=O)CC1Sc2ncccc2N(C)C1=O)c1cccnc1` (stereo not shown) [Example 39, 2-(1-methyl-2-oxo-2,3-dihydro-1H-pyrido[2,3-b][1,4]thiazin-3-yl)-N-(1-(pyridin-3-yl)ethyl)acetamide], the EC50 was > 100 µM.

As to `CC1CCCCN1CCNC(=O)CC1Sc2ncccc2N(C)C1=O` (stereo not shown) [Example 40, 2-(1-methyl-2-oxo-2,3-dihydro-1H-pyrido[2,3-b][1,4]thiazin-3-yl)-N-(2-(2-methylpiperidin-1-yl)ethyl)acetamide], the EC50 was > 100 µM.

For `CN1C(=O)C(CC(=O)NCc2cccs2)Sc2ncccc21` (stereo not shown) [Example 41, 2-(1-methyl-2-oxo-2,3-dihydro-1H-pyrido[2,3-b][1,4]thiazin-3-yl)-N-(thiophen-2-ylmethyl)acetamide], the EC50 was 10 to 49.9 µM.
